In the supplement of paper PMC4862054:

Columns and labels:
Settings in all cases: incubation time: 72 h
[1] = system: CAL-148; test: normalised response (% of control), CellTiter-Glo; higher = more viable cells (100 = DMSO, 0 = benzethonium chloride kill control)
Method: (§1)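 DSRT, 72 h incubation, CellTox Green / CellTiter-Glo readout. Signal is normalised to DMSO and benzethonium chloride controls. Value is the normalised response at dose 3.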

[2] = system: BT-549; test: as above
Method: as §1

[3] = system: DU-4475; test: as above
Method: as §1

[4] = system: MDA-MB-231; test: as above
Method: as §1

[5] = system: CAL-85-1; test: as above
Method: as §1

[6] = system: Hs578T; test: as above
Method: as §1

[7] = system: CAL-51; test: as above
Method: as §1

[8] = system: HDQ-P1; test: as above
Method: as §1

[9] = system: HCC1937; test: as above
Method: as §1

[10] = system: CAL-120; test: as above
Method: as §1

[11] = system: MDA-MB-468; test: as above
Method: as §1

[12] = system: SK-BR-3; test: as above
Method: as §1

[13] = system: MFM-223; test: as above
Method: as §1

[14] = system: BT-474; test: as above
Method: as §1

[15] = system: MCF-10A; test: as above
Method: as §1

[16] = system: MDA-MB-453; test: as above
Method: as §1

[17] = system: HCC1599; test: as above
Method: as §1

[18] = system: HCC1143; test: as above
Method: as §1

[19] = system: MDA-MB-436; test: as above
Method: as §1

[20] = system: CAL-148; test: normalised response (% of control), CellTox Green; higher = less cell death (100 = DMSO, 0 = benzethonium chloride kill control)
How it was run: (§2)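 Each value is the plate-normalised signal at one concentration of the series. Breast cancer cell lines (20 µl suspension) were incubated 72 h in 384-well plates with compound at 5 concentrations in 10-fold steps over a compound-specific 10,000-fold range. CellTox Green and then CellTiter-Glo were read, and each plate was scaled to 0.1 % DMSO (100) and a positive kill control (0).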

[21] = system: BT-549; test: as above
How it was run: as §2

[22] = system: DU-4475; test: as above
How it was run: as §2

[23] = system: MDA-MB-231; test: as above
How it was run: as §2

[24] = system: CAL-85-1; test: as above
How it was run: as §2

[25] = system: Hs578T; test: as above
How it was run: as §2

[26] = system: CAL-51; test: as above
How it was run: as §2

[27] = system: HDQ-P1; test: as above
How it was run: as §2

[28] = system: HCC1937; test: as above
How it was run: as §2

[29] = system: CAL-120; test: as above
How it was run: as §2

[30] = system: MDA-MB-468; test: as above
How it was run: as §2

[31] = system: BT-474; test: as above
How it was run: as §2

[32] = system: MCF-10A; test: as above
How it was run: as §2

[33] = system: MDA-MB-453; test: as above
How it was run: as §2

[34] = system: HCC1599; test: as above
How it was run: as §2

[35] = system: HCC1143; test: as above
How it was run: as §2

[36] = system: MDA-MB-436; test: as above
How it was run: as §2

[37] = system: MFM-223; test: as above
How it was run: as §2

| Structure (SMILES) | normalised response [1] [%] | normalised response [2] [%] | normalised response [3] [%] | normalised response [4] [%] | normalised response [5] [%] | normalised response [6] [%] | normalised response [7] [%] | normalised response [8] [%] | normalised response [9] [%] | normalised response [10] [%] | normalised response [11] [%] | normalised response [12] [%] | normalised response [13] [%] | normalised response [14] [%] | normalised response [15] [%] | normalised response [16] [%] | normalised response [17] [%] | normalised response [18] [%] | normalised response [19] [%] | normalised response [20] [%] | normalised response [21] [%] | normalised response [22] [%] | normalised response [23] [%] | normalised response [24] [%] | normalised response [25] [%] | normalised response [26] [%] | normalised response [27] [%] | normalised response [28] [%] | normalised response [29] [%] | normalised response [30] [%] | normalised response [31] [%] | normalised response [32] [%] | normalised response [33] [%] | normalised response [34] [%] | normalised response [35] [%] | normalised response [36] [%] | normalised response [37] [%] |
| --- | --- | --- | --- | --- | --- | --- | --- | --- | --- | --- | --- | --- | --- | --- | --- | --- | --- | --- | --- | --- | --- | --- | --- | --- | --- | --- | --- | --- | --- | --- | --- | --- | --- | --- | --- | --- | --- |
| Cc1cc2c(F)c(Oc3ncnn4cc(OC[C@@H](C)O)c(C)c34)ccc2[nH]1 [Brivanib] (10 nM) | 108 | 100 | 99.6 | 111 | 102 | 102 | 106 | 99.5 | 101 | 100 | 105 | 115 | 108 | 105 | 113 | 102 | 104 | 105 | 112 | 103 | 60.1 | 104 | 111 | 106 | 88.4 | 108 | 72.3 | 82 | 98 | 91.2 | 99.8 | 89.7 | 109 | 104 | 111 | 96 |  |
| CN1CCc2c(c3ccccc3n2Cc2ccc(C(=O)NO)cc2)C1 [Tubastatin A] (100 nM) | 106 | 103 | 102 | 99.9 | 98.2 | 102 | 91.8 | 95.4 | 101 | 98.1 | 95.3 | 97.5 | 96.9 | 96.8 | 102 | 96.3 | 99.2 | 104 | 93.1 | 99.3 | 86.2 | 104 | 116 | 102 | 110 | 105 | 101 | 92.5 | 103 |  | 101 | 101 | 107 | 99.9 | 105 | 109 | 93.8 |
| CC[C@@H]1C(=O)N(C)c2cnc(Nc3ccc(C(=O)N[C@H]4CC[C@H](N5CCN(CC6CC6)CC5)CC4)cc3OC)nc2N1C(C)C [Volasertib] (10 nM) | 84.4 | 89.8 | 100 | 79.9 | 70.4 | 96.3 | 84.2 | 86.3 | 83 | 88.5 | 68.3 | 54.8 | 54.6 | 82.6 | 87.9 | 65.4 | 106 | 82 | 59.5 | 86 | 100 | 95.3 | 71.8 | 69.5 | 77 | 65.5 | 87 | 53.5 | 91.6 | 34.3 | 71.2 |  | 92.4 | 91.3 |  | 19.6 | 1.2 |
| CN1CCN(c2nc(C3=C(c4c[nH]c5ccccc45)C(=O)NC3=O)c3ccccc3n2)CC1 [Sotrastaurin] (100 nM) | 97.2 | 98.7 | 94.3 | 102 | 102 | 97.5 | 112 | 96.1 | 97.8 | 98.1 | 99.3 | 100 | 92.1 | 98.2 | 87.5 | 95.6 | 99.1 | 98.8 | 98.9 | 98.4 | 99.3 | 99.6 | 67 | 113 | 93.3 | 98 | 101 | 64.6 | 83.6 | 162 | 102 | 91.4 | 97.8 | 97.2 | 76.4 | 96.6 |  |
| CCN(CC)CCOc1ccc(C(=C(Cl)c2ccccc2)c2ccccc2)cc1 [Clomifene] (100 nM) | 109 | 103 | 103 | 106 | 101 | 113 | 102 | 99 | 101 | 103 | 94.1 | 104 | 104 | 105 | 95.2 | 103 | 87.8 | 102 | 98.5 | 96.2 | 105 | 100 | 106 | 106 | 75.9 | 112 | 97.7 | 59.1 | 102 | 91.3 | 96.8 | 104 | 104 | 98.5 | 112 |  | 102 |
| NC(=O)c1cccc2cn(-c3ccc([C@@H]4CCCNC4)cc3)nc12 [MK-4827] (100 nM) | 112 | 91.6 | 99.8 | 106 | 101 | 95.1 | 90.9 | 101 | 102 | 105 | 94.7 | 104 | 107 | 109 | 110 | 99.4 | 90 | 107 | 95.8 | 104 |  | 101 | 107 | 102 | 116 | 89.4 | 78 | 111 | 102 | 136 | 88.2 | 84.8 | 91.6 | 115 | 110 |  | 82.5 |
| Nc1nc(Cl)nc2c1ncn2[C@@H]1O[C@H](CO)[C@@H](O)[C@@H]1F [Clofarabine] (100 nM) | 96.2 | 79.5 | 99.4 | 83.9 | 93.2 | 98.6 | 76 | 98.5 | 84.1 | 93.8 | 94.3 | 82.6 | 104 | 82.3 | 109 | 105 | 76.2 | 96.4 | 90.3 | 92.7 | 102 | 114 | 106 | 113 | 90.3 | 86 | 100 | 62.3 | 107 |  | 104 | 99.3 | 106 | 103 | 105 | 102 | 99.3 |
| NC1(c2ccc(-c3nc4ccn5c(=O)[nH]nc5c4cc3-c3ccccc3)cc2)CCC1 [MK-2206] (10 nM) | 107 | 107 | 102 | 108 | 99.8 | 102 | 74.5 | 95.5 | 96.5 | 102 | 102 | 93.8 | 104 | 102 | 110 | 88.5 | 84.7 | 104 | 102 |  | 86.6 | 103 | 115 | 95.4 | 96.1 | 83.6 | 114 | 81.7 | 103 | 139 | 99 | 111 | 110 | 118 | 110 | 95.6 | 104 |
| O=C(c1cc(Cc2n[nH]c(=O)c3ccccc23)ccc1F)N1CCN(C(=O)C2CC2)CC1 [Olaparib] (100 nM) | 98.5 | 100 | 95.8 | 93.8 | 102 | 97.7 | 66.4 | 96.8 | 96 | 91.4 | 105 | 88.8 | 99.2 | 96.5 | 101 | 107 | 103 | 94.4 | 91.3 | 79.6 | 105 | 101 | 97.4 | 103 | 110 | 81.9 | 101 | 94.9 | 95 |  | 96.5 | 98.9 | 103 | 101 | 110 | 88.4 | 103 |
